Measured values from paper PMC12332667, “Role of Structural Modifications in Peptidomimetic Compounds as Potential Antimicrobial Agents against Staphylococcus aureus and Streptococcus pyogenes: Balancing Bioavailability, Safety, and Antimicrobial Activity” (ACS Omega, 2025).
In brackets after ≈: the same amount, converted by molar mass. Several values for one entry are separate records, joined by “and”; a condition that tells them apart may be missing. Equal values may be shown once. Each block holds one compound with its values, some of them ahead of it.

Columns and labels:
E. coli ATCC 25922 = test: MIC/MBC broth microdilution, E. coli; assay type: cell-based, Escherichia coli
Procedure, shortened: (§1)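 BHI broth microdilution (NCCLS); ~10^5 CFU/mL; 37 °C, 18 h. MIC = lowest conc., no visible growth (≥90% vs untreated). MBC = ≤3 colonies, ≥99.9% kill. Water/DMSO/EtOH solvent controls; technical triplicate ×3 biological repeats.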

S. aureus ATCC 43300 = test: MIC/MBC broth microdilution, S. aureus; assay type: cell-based, Staphylococcus aureus; conditions: S. aureus
P. aeruginosa ATCC 10145 = test: MIC/MBC broth microdilution, P. aeruginosa; assay type: cell-based
Procedure, shortened: as §1

P. vulgaris ATCC 6896 = test: MIC/MBC broth microdilution, P. vulgaris; assay type: cell-based, Proteus vulgaris
Procedure, shortened: as §1

[1] = test system: K. pneumoniae ATCC 700603; test: MIC/MBC broth microdilution, K. pneumoniae; assay type: cell-based
Procedure, shortened: as §1

E. faecalis c.i. = test: MIC/MBC broth microdilution, E. faecalis; assay type: cell-based, Enterococcus faecalis
Procedure, shortened: as §1

[2] = test system: immortalized human HaCaT keratinocytes; test: XTT cell proliferation assay, keratinocytes; assay type: cell-based; conditions: for effect on proliferation, in words: XTT, 48 and 72 h, 0.01–150 μg/mL
Procedure, shortened: (§2)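 Proliferation was read as XTT absorbance at 490 nm after 4 h of reagent incubation, following 48 or 72 h of peptide exposure in serum-free HG-DMEM (37 °C, 5% CO2). The 72 h arm included a half-medium change with second peptide dose at 48 h. Significance by Mann–Whitney U, p ≤ 0.05.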

[3] = test system: human dermal fibroblast cell line (46BR.1N); test: XTT cell proliferation assay, fibroblasts; assay type: cell-based; conditions: for effect on proliferation, in words: XTT, 48 and 72 h, 0.01–150 μg/mL
Procedure, shortened: as §2

fibroblasts (46BR.1N) = test: LDH cytotoxicity test, fibroblasts; assay type: cell-based; conditions: 48 h; for cytotoxicity (LDH), in words: 50-150 μg/mL
Procedure, shortened: (§3)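 Cytotoxicity as LDH release after 48 h serum-free treatment (50, 100, 150 μg/mL peptidomimetics) of 46BR.1N fibroblasts or HaCaT keratinocytes seeded at 5000 per well. Absorbance 450 nm; untreated set as 0% and Triton X-100 1% as maximal release; Mann–Whitney U test, p ≤ 0.05.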

S. intemrdius c.i. = test: MIC/MBC broth microdilution, S. intermedius; assay type: cell-based, Staphylococcus intermedius
Procedure, shortened: as §1

S. pyogenes ATCC 19615 = test: MIC/MBC broth microdilution, S. pyogenes; assay type: cell-based, Streptococcus pyogenes; conditions: S. pyogenes
Procedure, shortened: as §1

S. mutans c.i. = test: MIC/MBC broth microdilution, S. mutans; assay type: cell-based, Streptococcus mutans
Procedure, shortened: as §1

[4] = Hydrophobicity by reverse-phase chromatography; assay type: physicochemical; conditions: acetonitrile content in the mobile phase at the retention time
Excerpt: Reverse-phase chromatography was employed to assess the hydrophobicity characteristics of the peptidomimetics. Hydrophobicity was quantified by determining the acetonitrile content in the mobile phase at the retention time of a peptidyl derivative (Table S2). The least hydrophobic compound (40% acetonitrile) was A-198, which aligns with the calculations of hydrophobicity by SwissADME and pkCSM (Table ). Next in the hydrophobicity sequence were A-197, A-220, A-219, A-174, and A-221, eluting with 42.5-43.9% of acetonitrile. Then there were followed by […], and A-179, with the acetonitrile percentage of 44.8-49.8. The compounds A-176, A-20, A-152, A-134, and A-210 needed over 50% of acetonitrile to be eluted from the column.

[5] = test system: immortalized human keratinocytes (HaCaT); test: LDH cytotoxicity test, keratinocytes; assay type: cell-based; conditions: 48 h; for cytotoxicity (LDH), in words: 50-150 μg/mL
Procedure, shortened: as §3

S. schleiferi c.i. = test: MIC/MBC broth microdilution, S. schleiferi; assay type: cell-based, Staphylococcus schleiferi
Procedure, shortened: as §1

S. cohnii c.i. = test: MIC/MBC broth microdilution, S. cohnii; assay type: cell-based, Staphylococcus cohnii
Procedure, shortened: as §1

S. agalactiae ATCC 27956 = test: MIC/MBC broth microdilution, S. agalactiae; assay type: cell-based, Streptococcus agalactiae; conditions: S. agalactiae
Procedure, shortened: as §1

[6] = up to 150 μg/mL, A-193 and A-179 after 48 h

SMILES: CC(C)[C@@H](CNC(=O)C(=Cc1ccccc1)c1ccccc1)NC(=O)[C@H](CCCNC(=N)N)NC(=O)[C@H](CCCNC(=N)N)NC(=O)OCc1ccccc1 [Compound A-179]
MIC (E. coli ATCC 25922; H2O): > 512 µg/mL | MIC (E. coli ATCC 25922; water additive DMSO): > 512 µg/mL | MIC (E. coli ATCC 25922; water additive EtOH): > 512 µg/mL | MBC (S. aureus ATCC 43300; H2O): 32 µg/mL (≈ 42.4 µM) | MIC (S. aureus ATCC 43300; H2O): 32 µg/mL (≈ 42.4 µM) | MBC (S. aureus ATCC 43300; water additive DMSO): 32 µg/mL (≈ 42.4 µM) | MIC (S. aureus ATCC 43300; water additive DMSO): 16 µg/mL (≈ 21.2 µM) | MBC (S. aureus ATCC 43300; water additive EtOH): 32 µg/mL (≈ 42.4 µM) | MIC (S. aureus ATCC 43300; water additive EtOH): 32 µg/mL (≈ 42.4 µM) | MIC (P. aeruginosa ATCC 10145; H2O): 256 µg/mL (≈ 339 µM) | MIC (P. aeruginosa ATCC 10145; water additive DMSO): > 512 µg/mL | MIC (P. aeruginosa ATCC 10145; water additive EtOH): > 512 µg/mL | MIC (P. vulgaris ATCC 6896; H2O): > 512 µg/mL | MIC (P. vulgaris ATCC 6896; water additive DMSO): > 512 µg/mL | MIC (P. vulgaris ATCC 6896; water additive EtOH): > 512 µg/mL | MIC ([1]; H2O): 512 µg/mL (≈ 678 µM) | MIC ([1]; water additive DMSO): > 512 µg/mL | MIC ([1]; water additive EtOH): > 512 µg/mL | MBC (E. faecalis c.i.; water additive DMSO): 256 µg/mL (≈ 339 µM) | MIC (E. faecalis c.i.; water additive DMSO): 256 µg/mL (≈ 339 µM) | MBC (E. faecalis c.i.; water additive EtOH): 256 µg/mL (≈ 339 µM) | effect on proliferation, in words [2]: negative impact | antiproliferative effect (decrease vs control) [2, 6]: ~50% | effect on proliferation, in words [3]: negative impact | antiproliferative effect (decrease vs control) [3, 6]: ~50% | cytotoxicity (LDH), in words (fibroblasts (46BR.1N)): less pronounced in fibroblasts | MBC (S. intemrdius c.i.; H2O): 32 µg/mL (≈ 42.4 µM) | MIC (S. intemrdius c.i.; H2O): 16 µg/mL (≈ 21.2 µM) | MBC (S. intemrdius c.i.; water additive DMSO): 32 µg/mL (≈ 42.4 µM) | MIC (S. intemrdius c.i.; water additive DMSO): 16 µg/mL (≈ 21.2 µM) | MBC (S. intemrdius c.i.; water additive EtOH): 16 µg/mL (≈ 21.2 µM) | MIC (S. intemrdius c.i.; water additive EtOH): 16 µg/mL (≈ 21.2 µM) | MBC (S. pyogenes ATCC 19615; H2O): 32 µg/mL (≈ 42.4 µM) | MIC (S. pyogenes ATCC 19615; H2O): 16 µg/mL (≈ 21.2 µM) | MBC (S. pyogenes ATCC 19615; water additive DMSO): 32 µg/mL (≈ 42.4 µM) | MIC (S. pyogenes ATCC 19615; water additive DMSO): 16 µg/mL (≈ 21.2 µM) | MBC (S. pyogenes ATCC 19615; water additive EtOH): 32 µg/mL (≈ 42.4 µM) | MIC (S. pyogenes ATCC 19615; water additive EtOH): 8 µg/mL (≈ 10.6 µM) | MIC (S. mutans c.i.; H2O): > 512 µg/mL | MIC (S. mutans c.i.; water additive DMSO): > 512 µg/mL | MIC (S. mutans c.i.; water additive EtOH): > 512 µg/mL | % AcCN (acetonitrile required for elution from the column) [4]: 49.8% and 44.8–49.8% | cytotoxicity (LDH), in words [5]: cytotoxic to keratinocytes at all concentrations | MBC (S. schleiferi c.i.; water additive EtOH): 256 µg/mL (≈ 339 µM) | MBC (S. cohnii c.i.; H2O): 32 µg/mL (≈ 42.4 µM) | MIC (S. cohnii c.i.; H2O): 16 µg/mL (≈ 21.2 µM) | MBC (S. cohnii c.i.; water additive DMSO): 32 µg/mL (≈ 42.4 µM) | MIC (S. cohnii c.i.; water additive DMSO): 32 µg/mL (≈ 42.4 µM) | MIC (S. cohnii c.i.; water additive EtOH): 32 µg/mL (≈ 42.4 µM)

MIC (E. coli ATCC 25922; H2O): > 512 µg/mL | MIC (E. coli ATCC 25922; water additive DMSO): > 512 µg/mL | MIC (E. coli ATCC 25922; water additive EtOH): > 512 µg/mL | MIC (S. aureus ATCC 43300; H2O): > 512 µg/mL | MIC (S. aureus ATCC 43300; water additive DMSO): > 512 µg/mL | MIC (S. aureus ATCC 43300; water additive EtOH): > 512 µg/mL | MIC (P. aeruginosa ATCC 10145; H2O): > 512 µg/mL | MIC (P. aeruginosa ATCC 10145; water additive DMSO): > 512 µg/mL | MIC (P. aeruginosa ATCC 10145; water additive EtOH): > 512 µg/mL | MIC (P. vulgaris ATCC 6896; H2O): > 512 µg/mL | MIC (P. vulgaris ATCC 6896; water additive DMSO): > 512 µg/mL | MIC (P. vulgaris ATCC 6896; water additive EtOH): > 512 µg/mL | MIC (S. agalactiae ATCC 27956; H2O): > 512 µg/mL | MIC (S. agalactiae ATCC 27956; water additive DMSO): > 512 µg/mL | MIC (S. agalactiae ATCC 27956; water additive EtOH): > 512 µg/mL | MIC ([1]; H2O): > 512 µg/mL | MIC ([1]; water additive DMSO): > 512 µg/mL | MIC ([1]; water additive EtOH): > 512 µg/mL | MIC (E. faecalis c.i.; H2O): > 512 µg/mL | MIC (E. faecalis c.i.; water additive DMSO): > 512 µg/mL | MIC (E. faecalis c.i.; water additive EtOH): > 512 µg/mL | MIC (S. pyogenes ATCC 19615; H2O): > 512 µg/mL | MIC (S. pyogenes ATCC 19615; water additive DMSO): > 512 µg/mL | MIC (S. pyogenes ATCC 19615; water additive EtOH): > 512 µg/mL | MIC (S. mutans c.i.; H2O): 256 µg/mL (≈ 506 µM) | % AcCN (acetonitrile required for elution from the column) [4]: 42.5% | MIC (S. schleiferi c.i.; H2O): 256 µg/mL (≈ 506 µM) | MIC (S. schleiferi c.i.; water additive DMSO): 256 µg/mL (≈ 506 µM) | MIC (S. schleiferi c.i.; water additive EtOH): 256 µg/mL (≈ 506 µM) | MIC (S. cohnii c.i.; H2O): > 512 µg/mL | MIC (S. cohnii c.i.; water additive DMSO): > 512 µg/mL | MIC (S. cohnii c.i.; water additive EtOH): > 512 µg/mL
SMILES: CC(C)C[C@H](NC(=O)[C@H](CCCNC(=N)N)NC(=O)OCc1ccccc1)C(=O)N[C@H](CN)C(C)C [Compound A-197]
effect on proliferation, in words [2]: did not exert any negative impact | effect on proliferation, in words [3]: did not exert any negative impact | cytotoxicity (LDH), in words (fibroblasts (46BR.1N)): no cytotoxicity | concentration at which cytotoxic effect starts (fibroblasts (46BR.1N); LDH): > 150 µg/mL | MBC (S. mutans c.i.; H2O): 512 µg/mL (≈ 1010 µM) | MBC (S. mutans c.i.; water additive EtOH): 256 µg/mL (≈ 506 µM) | cytotoxicity (LDH), in words [5]: no cytotoxicity | concentration at which cytotoxic effect starts ([5]; LDH): > 150 µg/mL
